The results in this text go back to patent publication US7368279B2, “Three dimensional bioengineered smooth muscle tissue and sphincters and methods therefor” (The Regents of The University of Michigan, priority 2004, dated 2008).

For this test, the system named is bioengineered IAS rings. Kind of test: Isometric force (contraction/relaxation) of bioengineered IAS rings. Type of test: cell-based, rabbit. The procedure:
Excitability and contractility of bioengineered IAS rings was measured using techniques adapted from previous work (Dennis et al., In Vitro Cellular & Developmental Biology Animal 36: 327-335, 2000. Dennis et al., American Journal of Physiology Cell Physiology 280: C288-C295, 2001). The diameter of the sphincter rings was measured and used to calculate cross-sectional area (CSA). The bioengineered sphincters were separated from their molds using forceps (FIG. 1 Panel E) and the minimum ring diameter was measured using a calibrated eyepiece and a 5× or 10× objective lens on an inverted microscope (Zeiss Axiovert 25, Thornwood, N.Y.). The cross section was circular, and therefore the CSA was calculated using the measured diameter. To measure the passive baseline force, the differentiation media in the plate containing the bioengineered sphincter was replaced with 37° C. Krebs solution (NaCl (119 mM), KCl (4.6 mM), NaHCO3 (15 mM), CaCl2 (1.5 mM), MgCl2 (1.2 mM), […], and glucose (11 mM)) and the plate was placed on a heated aluminum platform, which maintained a temperature of 37° C. until the testing was complete. For contractility measurements, one end of the bioengineered sphincter was anchored by a stainless steel pin (10 mm×0.1 mm diameter) to the PDMS substrate within the plate, while another stainless steel pin was bent in the shape of a hook and attached by canning wax to a force transducer (resolution of 1.4 μN and range of 2mN) as previously described (Dennis et al., In Vitro Cellular & Developmental Biology Animal 36: 327-335, 2000, Macpherson et al., J Physiol 500: 523-533, 1997) and as depicted in FIG. 1 (Panels F and G). The bioengineered sphincter was stretched approximately 50% of its resting length using a three-axis micromanipulator. The ring was allowed to sit for 20 minutes in order to reestablish a stable baseline level of force (Pb), which was measured as the average baseline passive force preceding stimulation. All force measurements were collected at 100 samples/second for 60 seconds and recorded using a computer with LabVIEW data acquisition software (National Instruments, Austin, Tex.). A median filter of rank 2 was applied to all raw force data before being stored to minimize digitization noise without causing a phase delay for rapidly changing forces. The peak isometric force (ΔP) was determined by subtracting the Pb from the total force values. Specific force (sΔP) was calculated by dividing ΔP by the CSA. Data analysis was done using LabVIEW and Microsoft Excel software programs. Each measurement was repeated at least three times and the mean value was recorded. Contractions were induced in the rings by the addition of acetylcholine. Dose-response relationships of acetylcholine were investigated in the range of 10^−6M to 10^−10M. Incremental doses of acetylcholine were added after the maximal response of the preceding concentration and the establishment of a new baseline. Relaxation response in the rings was induced by the addition of 8-Bromoadenosine 3′:5′-Cyclic Monophosphate (8-br-cAMP). Maximal relaxation was achieved after approximately 4 minutes and therefore relaxation measurements are collective of four consecutive 1-minute data recordings.

Entries after “also recorded” stand apart in the source; their conditions may differ.

`Nc1ncnc2c1nc(Br)n2[C@@H]1O[C@@H]2COP(=O)(O)O[C@H]2[C@H]1O` [8-br-cAMP, 8-Bromoadenosine 3′:5′-Cyclic Monophosphate]: the “relaxation of acetylcholine-induced contraction” value (10^−5 M 8-br-cAMP added after 10^−6 M acetylcholine, Krebs buffer) is given as “rapid relaxation; also recorded: immediate relaxation”. Moreover, under “10^−5 M 8-br-cAMP, 4 minutes, 0 Ca2+/2 mM EGTA Krebs”, the “ΔP (relaxation response)” value is −23±4 μN. The “average ΔP (relaxation from basal tone)” value (10^−5 M 8-br-cAMP, 4 minutes, Krebs buffer) is −16.3±2.0 μN.
